*1 amine or outer side, *2 acyl side, *3 side chain or, on linkers, in order; H or OH if unused. Where a SMILES comes first, the peptide text is derived from it. Side-chain parts run from the residue outwards. [ ]: non-standard residue; d: D form. The star is where a group is joined. C20 diacid = O=C(O)CCCCCCCCCCCCCCCCCCC(=O)*; γGlu = O=C(O)[C@H](CCC(=O)[*:2])N[*:1]; X23 = CC(C)(C(=O)*)c1ccncc1; X64 = CC(C)(C(=O)*)c1ccccn1; AEEA = NCCOCCOCC(=O)O; Aib = CC(C)(N)C(=O)O; βAla = NCCC(=O)O Where only a bound is given, the exact number is not on record here.

Assay type in all cases: cell-based
The target of assay [1] is T1, GIP receptor (Homo sapiens, UniProt P48546).
T1 sequence (P48546 22-466): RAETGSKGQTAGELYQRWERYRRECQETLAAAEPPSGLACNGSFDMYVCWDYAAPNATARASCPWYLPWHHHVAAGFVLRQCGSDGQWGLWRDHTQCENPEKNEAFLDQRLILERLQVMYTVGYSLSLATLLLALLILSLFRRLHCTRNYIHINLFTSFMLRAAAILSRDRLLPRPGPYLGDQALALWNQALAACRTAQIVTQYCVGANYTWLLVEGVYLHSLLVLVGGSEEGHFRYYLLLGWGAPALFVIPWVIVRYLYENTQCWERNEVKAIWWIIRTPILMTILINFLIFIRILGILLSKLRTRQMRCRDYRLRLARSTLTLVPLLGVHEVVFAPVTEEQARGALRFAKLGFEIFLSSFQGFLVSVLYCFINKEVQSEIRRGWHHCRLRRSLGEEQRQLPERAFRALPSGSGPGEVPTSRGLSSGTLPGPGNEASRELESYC
The assay is described as follows: HitHunter cAMP assay, GIP receptor. The following applies: for EC50: CHO cells stably expressing GIP receptor, cAMP accumulation, 30 min, read-out: EC50 GIP-1R; for Emax: CHO cells, cAMP, normalized to maximum signal from GIP (high) and DMSO (low), read-out: Emax GIP-1R.

For assay [2], the target named is T2, GLP-1 receptor (Homo sapiens, UniProt P43220). The assay is described as follows: HitHunter cAMP assay, GLP-1 receptor. The following applies: for EC50: CHO cells stably expressing human GLP-1 receptor, cAMP accumulation, 30 min, read-out: EC50 GLP-1R; for Emax: CHO cells, cAMP, normalized to maximum signal from GLP-1 (high) and DMSO (low), read-out: Emax GLP-1R.
T2 sequence (P43220 24-463): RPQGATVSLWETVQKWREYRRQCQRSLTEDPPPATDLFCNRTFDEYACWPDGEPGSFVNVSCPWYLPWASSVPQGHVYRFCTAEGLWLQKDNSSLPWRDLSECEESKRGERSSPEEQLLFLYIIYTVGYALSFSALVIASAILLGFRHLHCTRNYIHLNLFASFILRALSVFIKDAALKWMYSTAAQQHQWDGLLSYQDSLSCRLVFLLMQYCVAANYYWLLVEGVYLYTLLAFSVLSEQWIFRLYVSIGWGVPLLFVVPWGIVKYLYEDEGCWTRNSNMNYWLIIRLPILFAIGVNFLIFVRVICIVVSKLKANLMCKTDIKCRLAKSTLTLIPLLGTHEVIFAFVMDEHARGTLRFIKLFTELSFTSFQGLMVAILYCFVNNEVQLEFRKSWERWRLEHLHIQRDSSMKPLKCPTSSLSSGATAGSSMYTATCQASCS

The target in assay [3] is T2, GLP-1 receptor. The assay is described as follows: PathHunter β-arrestin assay, GLP-1 receptor. Particulars: β-arrestin-2 recruitment, PathHunter CHO-K1 GLP1R β-Arrestin Cell Line, 90 min at 37° C.; normalized to GLP-1; read-out: GLP-1R β Arrestin EC50. Set-up: host or cells: PathHunter CHO-K1 GLP1R β-Arrestin Cell Line. On the technique in general: Arrestin recruitment assays detect the binding of arrestin to an activated receptor.

For assay [4], the target named is T1, GIP receptor. Description: PathHunter β-arrestin assay, GIP receptor. Set-up: host or cells: PathHunter CHO-K1 GIPR β-Arrestin Cell Line. The following applies: β-arrestin-2 recruitment, PathHunter CHO-K1 GIPR β-Arrestin Cell Line, 90 min at 37° C.; normalized to GIP; read-out: GIPR β Arrestin EC50.

As for `CC[C@H](C)[C@H](NC(=O)[C@H](CC(C)C)NC(=O)[C@H](Cc1c[nH]c2ccccc12)NC(=O)[C@H](CCC(N)=O)NC(=O)[C@@H](NC(=O)[C@H](Cc1ccccc1)NC(=O)[C@H](C)NC(=O)[C@H](CCCCNC(=O)COCCOCCNC(=O)COCCOCCNC(=O)CC[C@H](NC(=O)CCCCCCCCCCCCCCCCCCC(=O)O)C(=O)O)NC(=O)[C@H](CCC(N)=O)NC(=O)[C@H](C)NC(=O)[C@@H](NC(=O)[C@H](CCCCN)NC(=O)[C@H](CC(=O)O)NC(=O)[C@H](CC(C)C)NC(=O)C(C)(C)NC(=O)[C@@H](NC(=O)[C@H](CO)NC(=O)[C@H](Cc1ccc(O)cc1)NC(=O)[C@H](CC(=O)O)NC(=O)[C@H](CO)NC(=O)[C@@H](NC(=O)[C@H](Cc1ccccc1)NC(=O)[C@@H](NC(=O)CNC(=O)[C@H](CCC(=O)O)NC(=O)CCNC(=O)C(C)(C)c1ccccn1)[C@@H](C)O)[C@@H](C)O)[C@@H](C)CC)[C@@H](C)CC)C(C)C)C(=O)N[C@@H](C)C(=O)NCC(=O)NCC(=O)N1CCC[C@H]1C(=O)N[C@@H](CO)C(=O)N[C@@H](CO)C(=O)NCC(=O)N[C@@H](C)C(=O)N1CCC[C@H]1C(=O)N1CCC[C@H]1C(=O)N1CCC[C@H]1C(=O)N[C@@H](CO)C(N)=O` [Compound 237] ({X64-βAla}-EGTFTSDYSI[Aib]LDKIAQK([AEEA-AEEA-γGlu-C20 diacid])AFVQWLIAGGPSSGAPPPS-NH2), the EC50 (in general, the concentration that produces a half-maximal response) at GIP receptor [1] was 1 to 10 nM; on GLP-1 receptor [2] it was less than 0.1 nM; at GLP-1 receptor [3], more than 1000 nM; on GIP receptor [4], less than 1000 nM. Moreover, the maximal response (Emax) – broadly, the greatest response seen or fitted, relative to the assay's reference – on GIP receptor [1] stood at 91%; at GLP-1 receptor [2], 93%.

As to `CC[C@H](C)[C@H](NC(=O)[C@H](CC(C)C)NC(=O)[C@H](Cc1c[nH]c2ccccc12)NC(=O)[C@H](CCC(N)=O)NC(=O)[C@@H](NC(=O)[C@H](Cc1ccccc1)NC(=O)[C@H](C)NC(=O)[C@H](CCCCNC(=O)COCCOCCNC(=O)COCCOCCNC(=O)CC[C@H](NC(=O)CCCCCCCCCCCCCCCCCCC(=O)O)C(=O)O)NC(=O)[C@H](CCC(N)=O)NC(=O)[C@H](C)NC(=O)[C@@H](NC(=O)[C@H](CCCCN)NC(=O)[C@H](CC(=O)O)NC(=O)[C@H](CC(C)C)NC(=O)C(C)(C)NC(=O)[C@@H](NC(=O)[C@H](CO)NC(=O)[C@H](Cc1ccc(O)cc1)NC(=O)[C@H](CC(=O)O)NC(=O)[C@H](CO)NC(=O)[C@@H](NC(=O)[C@H](Cc1ccccc1)NC(=O)[C@@H](NC(=O)CNC(=O)[C@H](CCC(=O)O)NC(=O)CCNC(=O)C(C)(C)c1ccncc1)[C@@H](C)O)[C@@H](C)O)[C@@H](C)CC)[C@@H](C)CC)C(C)C)C(=O)N[C@@H](C)C(=O)NCC(=O)NCC(=O)N1CCC[C@H]1C(=O)N[C@@H](CO)C(=O)N[C@@H](CO)C(=O)NCC(=O)N[C@@H](C)C(=O)N1CCC[C@H]1C(=O)N1CCC[C@H]1C(=O)N1CCC[C@H]1C(=O)N[C@@H](CO)C(N)=O` [Compound 238] ({X23-βAla}-EGTFTSDYSI[Aib]LDKIAQK([AEEA-AEEA-γGlu-C20 diacid])AFVQWLIAGGPSSGAPPPS-NH2), the EC50 at GIP receptor [1] was 10 to 100 nM; at GLP-1 receptor [2] it was 0.1 to 1 nM; on GLP-1 receptor [3], more than 1000 nM; at GIP receptor [4], more than 1000 nM. For the same compound, the Emax came out at 100% on GIP receptor [1] and 91% at GLP-1 receptor [2].
